pIC50: −log10 of the molar value.
Experiments:
KRas^G12V = biological target: T1, KRas^G12V (Homo sapiens, UniProt P01116, G12V); assay: KRas binding assay (TR-FRET displacement of Cy5 labelled tracer)
T1 construct: […]; biotin (biotinylated); purchased Accelegan Inc
Description: (§4) The ability of a compound to bind to KRas was measured using a TR-FRET displacement assay. […] After a 60-minute incubation at room temperature, the reaction was measured using a BMG LABTECH CLARIO star Plus via TR-FRET. […] The POC values were fit to a 4-parameter IC50 equation and the IC50 value reported.

KRas^G12D = biological target: T2, KRas^G12D (Homo sapiens, UniProt P01116, G12D); assay: as above
T2 construct: […]; biotin (biotinylated); purchased Accelegan Inc
Description: as §4

KRas^G12R = biological target: T3, KRas^G12R (Homo sapiens, UniProt P01116, G12R); assay: as above
T3 construct: […]; biotin (biotinylated); purchased Accelegan Inc
Description: as §4

PSN1 cells, pERK = assay: Inhibition of KRas phosphorylation of ERK (Cisbio HTRF Advanced pERK assay); format: cell-based; conditions: Homo sapiens, PSN1, 3 h, read-out: Inhibition (HTRF IC50 nM) of KRas-mediated Phosphorylation of ERK, PSN1
Description: (§1) Inhibition of KRas Phosphorylation of ERK (HTRF) by Exemplary Compounds of Formula (I)
(§2) Cisbio HTRF Advanced pERK Assay Catalog #64AERPEH
(§3) • Day 1: Seed 6,000 cells/well −25 μl/well in 384-well white solid bottom plate; RPM1_10% FBS. […] To harvest cells from flask using 0.05% Trypsin/EDTA solution. Add 10 mL of media to stop trypsinizing. Pipette the cells into a conical bottom 50 mL centrifuge tube and centrifuge 5 min×1000 rpm. • 2. Re-suspend the cell pellet in media, take a cell count, and then adjust the cell density using fresh media. • 3. Seed 6,000 cells into cell culture plate with […]. The • 4. Incubate cell plate overnight in a 37° C., 5% CO2 incubator. Compound Titrations • 1. Use Tecan to complete the compound addition. Compounds start from 10 uM top, 3-fold dilution, and 10 doses. The final DMSO concentration is 0.8%. Dispensed 0.2 uM Trametinib as Min control. • 2. Incubate cell plate for 3 hrs in the incubator. Detection with Cisbio pERK HTRF Kit • 1. Dilute 1 volume of 4× lysis buffer with 3 volumes of deionized water. Then, add 100× the blocking reagent. Keep lysis buffer on the ice. • 2. At the end of the compound treatment, flick-off the media. • 3. Add 35 μL of lysis buffer per well using a Multidrop Combi. Then place on a plate agitator shaking at 300 rpm at 4° C. for 40 mins. • 4. Make up the HTRF antibody buffer. For each assay plate, mix 50 μL of d2-conjugate antibody with 950 μL of detection buffer. Similarly, mix 50 μL of Cryptate antibody with 950 μL of detection buffer. Then mix the two diluted antibodies together. • 5. Dispense 3.4 μL the antibody buffer to wells of an empty assay plate. Seal the plate and centrifuge plate 30 sec×1000 rpm. • 6. At the end of the 4° C. lysis, centrifuge the lysate plates 3 mins×1500 rpm. • 7. Use the Bravo to transfer 13.6 μL of lysate from cell culture plate to assay plate. Then incubate assay plate for 2 hrs at room temperature. • 8. At the end of incubation, read plate on the Envision after centrifuging plate 30 sec×1000 rpm.

ASPC1 cells, pERK = assay: as above; format: cell-based; conditions: Homo sapiens, ASPC1, 3 h, AsPC-1 cells, read-out: Inhibition (HTRF IC50 nM) of KRas-mediated Phosphorylation of ERK, AsPC-1
Description: as §1, §2, §3

H727 cells, pERK = assay: as above; format: cell-based; conditions: Homo sapiens, NCI-H727, 3 h, read-out: Inhibition (HTRF IC50 nM) of KRas-mediated Phosphorylation of ERK, H727
Description: as §1, §2, §3

MKN1 cells, pERK = assay: as above; format: cell-based; conditions: Homo sapiens, MKN-1, 3 h, read-out: Inhibition (HTRF IC50 nM) of KRas-mediated Phosphorylation of ERK, MKN1
Description: as §1, §2, §3

T3 sequence (P01116 1-169 isoform P01116-2 G12R): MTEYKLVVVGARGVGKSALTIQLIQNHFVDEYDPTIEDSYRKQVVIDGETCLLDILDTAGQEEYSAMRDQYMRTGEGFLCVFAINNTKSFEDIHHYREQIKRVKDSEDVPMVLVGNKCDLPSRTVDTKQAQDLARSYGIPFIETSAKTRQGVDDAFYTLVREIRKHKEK
T2 sequence (P01116 1-169 isoform P01116-2 G12D): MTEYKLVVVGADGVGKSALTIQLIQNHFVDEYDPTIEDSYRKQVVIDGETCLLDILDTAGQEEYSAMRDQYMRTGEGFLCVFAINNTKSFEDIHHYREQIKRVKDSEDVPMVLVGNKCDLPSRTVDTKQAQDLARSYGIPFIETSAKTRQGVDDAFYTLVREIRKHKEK
T1 sequence (P01116 1-169 isoform P01116-2 G12V): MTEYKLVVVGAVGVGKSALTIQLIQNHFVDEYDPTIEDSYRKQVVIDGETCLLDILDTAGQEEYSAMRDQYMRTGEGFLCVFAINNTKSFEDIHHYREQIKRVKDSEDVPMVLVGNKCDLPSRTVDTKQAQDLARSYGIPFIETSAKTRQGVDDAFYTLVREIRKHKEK

| Structure (SMILES) | pIC50 (KRas^G12V) | pIC50 (KRas^G12D) | pIC50 (KRas^G12R) | IC50 (PSN1 cells, pERK) [nM] | IC50 (ASPC1 cells, pERK) [nM] | IC50 (H727 cells, pERK) [nM] | IC50 (MKN1 cells, pERK) [nM] |
| --- | --- | --- | --- | --- | --- | --- | --- |
| CCc1c(F)ccc2cc(O)cc(N3CCc4c(nc(OC[C@@]56CCCN5C[C@H](F)C6)nc4N4C[C@H]5C[C@@H](O)C[C@H]5C4)C3)c12 [Example 184, (3aR,5S,6aS)-2-(7-(8-ethyl-7-fluoro-3-hydroxynaphthalen-1-yl)-2-(((2R,7aS)-2-fluorohexahydro-1H-pyrrolizin-7a-yl)methoxy)-5,6,7,8-tetrahydropyrido[3,4-d]pyrimidin-4-yl)octahydrocyclopenta[c]pyrrol-5-ol] | 7.92 | 7.64 | 7.96 | ≥ 10000 | 770 | 796 | 652 |
| CCc1c(F)ccc2cc(O)cc(N3CCc4c(nc(OC[C@@]56CCCN5C[C@H](F)C6)nc4N4CCCc5nn(C(=O)NC(C)C)cc5C4)C3)c12 [Example 195, 5-(7-(8-ethyl-7-fluoro-3-hydroxynaphthalen-1-yl)-2-(((2R,7aS)-2-fluorohexahydro-1H-pyrrolizin-7a-yl)methoxy)-5,6,7,8-tetrahydropyrido[3,4-d]pyrimidin-4-yl)-N-isopropyl-5,6,7,8-tetrahydropyrazolo[4,3-c]azepine-2(4H)-carboxamide] | 8.10 | 7.77 | 7.70 | ≥ 10000 | 1110 | 373 | 1520 |
| Oc1cc(N2CCc3c(nc(OC[C@@]45CCCN4C[C@H](F)C5)nc3N3CCOCC(n4cccn4)C3)C2)c2c(Cl)c(F)ccc2c1 (stereo partly drawn) [Example 230, 4-(4-(6-(1H-pyrazol-1-yl)-1,4-oxazepan-4-yl)-2-(((2R,7aS)-2-fluorohexahydro-1H-pyrrolizin-7a-yl)methoxy)-5,6-dihydropyrido[3,4-d]pyrimidin-7(8H)-yl)-5-chloro-6-fluoronaphthalen-2-ol] | 8.52 | 8.30 | 8.30 | ≥ 10000 | 1090 | 1750 | 112 |
| CCc1c(F)ccc2cc(O)cc(N3CCc4c(nc(OC[C@@]56CCCN5C[C@H](F)C6)nc4N4CC5CC(O)CC(C5)C4)C3)c12 (stereo partly drawn) [Example 179, 3-(7-(8-ethyl-7-fluoro-3-hydroxynaphthalen-1-yl)-2-(((2R,7aS)-2-fluorohexahydro-1H-pyrrolizin-7a-yl)methoxy)-5,6,7,8-tetrahydropyrido[3,4-d]pyrimidin-4-yl)-3-azabicyclo[3.3.1]nonan-7-ol] | 7.00 | 6.68 | 7.10 | ≥ 10000 | 5170 | 4790 | 1210 |
| CCc1c(F)ccc2cc(O)cc(N3CCc4c(nc(OC[C@@]56CCCN5C[C@H](F)C6)nc4N4C[C@H]5CC[C@H](O)[C@H]5C4)C3)c12 [Example 182, (3aR,4S,6aS)-2-(7-(8-ethyl-7-fluoro-3-hydroxynaphthalen-1-yl)-2-(((2R,7aS)-2-fluorohexahydro-1H-pyrrolizin-7a-yl)methoxy)-5,6,7,8-tetrahydropyrido[3,4-d]pyrimidin-4-yl)octahydrocyclopenta[c]pyrrol-4-ol] | 7.12 | 6.68 | 6.93 | ≥ 10000 | 3920 | 4660 | 1300 |
| Oc1cc(N2CCc3c(nc(OC[C@@]45CCCN4C[C@H](F)C5)nc3N3CC4CC(O)C(C4)C3)C2)c2c(Cl)c(F)ccc2c1 (stereo partly drawn) [Example 227, 3-(7-(8-chloro-7-fluoro-3-hydroxynaphthalen-1-yl)-2-(((2R,7aS)-2-fluorohexahydro-1H-pyrrolizin-7a-yl)methoxy)-5,6,7,8-tetrahydropyrido[3,4-d]pyrimidin-4-yl)-3-azabicyclo[3.2.1]octan-6-ol] | 8.40 | 7.70 | 8.22 | 7050 | 4050 | 1300 | 524 |
